Assay in all cases: DTP human tumour cell line panel, 48 h
Assay [1] deals with CCRF-CEM.
Assay [2] relates to SF-295.
The test system of assay [3] is SR.
Assay [4] deals with 786-0.
Assay [5] concerns HL-60.
Assay [6] relates to RPMI-8226.
Assay [7] concerns SK-MEL-2.
The subject of assay [8] is NCI-H460.
Assay [9] has as its system U-251.
For assay [10], the system named is SNB-19.
Assay [11] deals with SF-268.
Assay [12] has as its system SK-MEL-28.
The test system of assay [13] is NCI-H23.
Assay [14] deals with A498.
For assay [15], the system named is A549.

Molecules are shown by their SMILES.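 These data come from cells grown in 96-well plates and exposed to compound for 48 hours at five concentrations. GI50 marks 50% less growth.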 The source made the active and inactive calls. Cut-off read from the data, not from the text of the source: active = GI50 up to about 1.1 µM and inactive = higher.

With `CCN(CC)C(=S)S` [DITIOCARB SODIUM], the GI50 in assay [1] was 0.0443 µM (active); in assay [2], > 79.6 µM (inactive); in [3] it was 0.0354 µM (active); in assay [4], 67.9 µM (inactive); in [5], 0.294 µM (active); in assay [6], 0.528 µM (active). Also, the GI50 in assay [7] is > 81.1 µM (inactive); in assay [8] it was 0.373 µM (active); in assay [9], 0.299 µM (active); in assay [10], > 100 µM (inactive); in assay [11] it was > 79.1 µM (inactive); in [12] it was > 47.9 µM (inactive).
For `Cn1c(=O)nc2n(-c3cccc(F)c3)c3ccccc3nc-2c1=O`, the GI50 is 19.4 µM (inactive) in [1]; 24.9 µM (inactive) in [2]; 12.1 µM (inactive) in assay [13]; 42 µM (inactive) in assay [4]; 39.9 µM (inactive) in [14]; 20.5 µM (inactive) in assay [6]. Besides, the GI50 in assay [15] was 19 µM (inactive); in assay [7], 20.3 µM (inactive); in assay [8], 11.6 µM (inactive); in [9] it was 19.3 µM (inactive); in assay [10], 21.9 µM (inactive); in assay [11] it was 43.3 µM (inactive).
Take `COc1ccc(CCC2c3cc(OC)c(OC)cc3CCN2C)cc1OC` (centres undefined): the GI50 in [1], in assay [2], in [13], in [3], in [4] and in [5] was > 100 µM (inactive) each time. The GI50 in assay [6], in assay [15], in assay [7], in [8], in [9] and in assay [10] was > 100 µM (inactive) each time. In addition, the GI50 in [11] and in assay [12] was > 100 µM (inactive) each time.
Take `C[N+]1=C(c2cccnc2/C=N/O)OCC1(C)C`: the GI50 in [1], in assay [2], in assay [13], in assay [3], in [4] and in assay [14] was > 100 µM (inactive) each time. Moreover, the GI50 in assay [5], in [15], in assay [7], in assay [8], in assay [9] and in assay [10] was > 100 µM (inactive) throughout. For the same molecule, the GI50 in [11] and in [12] was > 100 µM (inactive) each time.
For `O=C(CO[N+](=O)[O-])OC/C=C/c1ccccc1`, the GI50 in assay [1] is > 100 µM (inactive); in assay [2], > 100 µM (inactive); in [13] it was > 100 µM (inactive); in assay [3] it was > 100 µM (inactive); in [4], > 100 µM (inactive); in assay [5] it was 22.1 µM (inactive). The GI50 in assay [6], in assay [15], in assay [7], in assay [8], in assay [9] and in assay [10] was > 100 µM (inactive) each time. Further, in assay [11], the GI50 was > 100 µM (inactive).
On to `CN1C(=O)CC(CC(=O)C2CCCCC2=O)CC1=O` (centres undefined), for which the GI50 in assay [1], in [2], in assay [13], in assay [3], in assay [4] and in assay [14] was > 100 µM (inactive) each time. Besides, the GI50 in [5], in [6], in [15], in assay [8], in assay [9] and in [10] was > 100 µM (inactive) throughout. Also, the GI50 in assay [11] and in assay [12] was > 100 µM (inactive) each time.
`COc1ccc(C2c3cc(OC)c(OC)cc3C(Cc3ccc([N+](=O)[O-])cc3)C2c2ccc([N+](=O)[O-])cc2)cc1OC` (centres undefined): the GI50 in [1], in [2], in [13], in [4], in assay [14] and in assay [5] was > 100 µM (inactive) throughout. Moreover, the GI50 in [6], in [15], in assay [7], in assay [8], in assay [9] and in assay [10] was > 100 µM (inactive) throughout. Besides, the GI50 in [11] and in assay [12] was > 100 µM (inactive) throughout.
For `CN1Cc2c(nc(-c3ccc(Br)cc3)c[n+]2[O-])N(C)C1`, the GI50 in [1], in [2], in [13], in assay [3], in assay [4] and in [14] was > 100 µM (inactive) in each case. Also, the GI50 in assay [5], in assay [15], in [7], in assay [8], in assay [9] and in assay [10] was > 100 µM (inactive) throughout. For the same molecule, the GI50 in assay [11] and in [12] was > 100 µM (inactive) each time.
On to `COc1ccc2[nH]c3c(c2c1)[C@H](c1ccccc1)C[C@@H]1C(=O)N(c2ccccc2)C(=O)[C@H]31`, for which the GI50 is 30.9 µM (inactive) in [1]; 48.4 µM (inactive) in assay [2]; 31.6 µM (inactive) in assay [3]; 17.5 µM (inactive) in assay [4]; 21.4 µM (inactive) in assay [14]; 13.3 µM (inactive) in [15]. For the same molecule, the GI50 was 55.1 µM (inactive) in assay [7]; 22.4 µM (inactive) in assay [8]; 18 µM (inactive) in assay [9]; 29.2 µM (inactive) in assay [10]; > 100 µM (inactive) in [11]; > 100 µM (inactive) in assay [12].
With `N#CC(C#N)=c1[nH]c2cccc3c2-c2c(cccc2c3=C(C#N)C#N)[nH]1`, the GI50 in assay [1] is 45.1 µM (inactive); in assay [2] it was > 100 µM (inactive); in [13], > 100 µM (inactive); in assay [3], > 100 µM (inactive); in assay [4], > 100 µM (inactive); in assay [14], > 100 µM (inactive). Besides, the GI50 in assay [5], in [6], in assay [15], in assay [8], in assay [9] and in assay [10] was > 100 µM (inactive) in each case. The GI50 in [11] is > 100 µM (inactive).
On to `Brc1ccc(N2C[N+](c3ccc(Br)cc3)=NC(c3ccccc3)=N2)cc1`, for which the GI50 was 15.5 µM (inactive) in assay [2]; 16.1 µM (inactive) in [13]; 16 µM (inactive) in assay [4]; 18.3 µM (inactive) in assay [14]; 17.1 µM (inactive) in assay [5]; 9.35 µM (inactive) in assay [6]. Also, the GI50 in assay [15] is 18.6 µM (inactive); in assay [7], 17 µM (inactive); in [8], 13.6 µM (inactive); in assay [9], 19.1 µM (inactive); in [10], 17.3 µM (inactive); in assay [11], 18.3 µM (inactive). In addition, the GI50 in assay [12] is 23 µM (inactive).
With `COc1cccc(/C=C/c2cc(OC)c(OC)c(OC)c2)c1`, the GI50 was 33.7 µM (inactive) in assay [1]; 30.3 µM (inactive) in assay [13]; 35.1 µM (inactive) in assay [3]; 30.5 µM (inactive) in [4]; 57 µM (inactive) in assay [14]; 34 µM (inactive) in [6]. Also, the GI50 in [15] is 42.3 µM (inactive); in assay [7], 62.7 µM (inactive); in [8], 43.4 µM (inactive); in assay [9], 36.5 µM (inactive); in [10], 42.9 µM (inactive); in assay [11], 68.9 µM (inactive). Besides, in assay [12], the GI50 is 38.5 µM (inactive).
For `CC1C=C(CCCCCCCCCCCC[C@@H](O)[C@@H]2CC[C@@H]([C@@H]3CC[C@@H](C(O)CCCCCCCCCCCCC4=C[C@H](C)OC4=O)O3)O2)C(=O)O1` (some centres undefined), the GI50 was 5.36 µM (inactive) in assay [1]; 0.078 µM (active) in assay [2]; < 0.0422 µM (active) in [13]; > 100 µM (inactive) in assay [4]; 75.7 µM (inactive) in [14]; 5.41 µM (inactive) in assay [5]. The GI50 in assay [6] was 0.518 µM (active); in [15], 4.5 µM (inactive); in assay [7], > 100 µM (inactive); in assay [8], 0.881 µM (active); in assay [9], 23.7 µM (inactive); in [10], > 42.5 µM (inactive). In addition, the figures for the GI50 in assay [11] and in assay [12] were > 47.5 µM (inactive) and > 100 µM (inactive), respectively.
Turning to `Cc1ccc(NC(=O)CC2SC(=N)NC2=O)cc1C` (centres undefined), the GI50 in [2], in assay [13], in assay [3], in [4], in assay [5] and in assay [6] was > 100 µM (inactive) in each case. Besides, the GI50 in assay [15] is > 100 µM (inactive); in [7] it was > 100 µM (inactive); in [8], > 100 µM (inactive); in assay [9], 64.3 µM (inactive); in assay [10], > 100 µM (inactive); in [11] it was > 100 µM (inactive). Moreover, the GI50 in [12] is > 100 µM (inactive).
For `COCC(O)Cn1ccnc1[N+](=O)[O-]` (centres undefined) [MISONIDAZOLE], the GI50 in assay [1], in [2], in assay [13], in assay [3], in assay [4] and in assay [5] was > 100 µM (inactive) in each case. Also, the GI50 in assay [6], in assay [15], in assay [7], in [8], in assay [9] and in assay [10] was > 100 µM (inactive) each time. Further, the GI50 in [11] and in [12] was > 100 µM (inactive) throughout.

In general, GI50 refers to the concentration that inhibits growth by half.
